Test results taken from patent publication US5494932A, “Sulfonic stilbene derivatives in the treatment of viral disease” (Merrell Dow Pharmaceuticals Inc., priority 1991, dated 1996).
Like-named read-outs stand apart in the source and are kept apart here.

Key:
HCMV = experiment: Plaque reduction assay, HCMV; type: cell-based
Experimental: Protocol: Plaque reduction assay. Treatment after adsorption during incubation.

[1] = system: HIV-1 strain RF in MT-4 cells; experiment: Growth of HIV-1 RF in MT-4 cells; type: cell-based, HIV-1 (human MT-4 cells)
Description: When evaluated in the human T cell line JM acutely infected with the GB8 virus, DIDS, H2 DIDS and SITS (Table I) suppressed virus-induced multinucleated giant cell formation (syncytia). […] We also examined the antiviral properties of these compounds in a second host-cell/virus system, i.e., the highly CD4+ C8166 cells infected with the Haitian strain of HIV-1, RF.
The cell lines used were the semi-mature human lymphoblastoid leukemia T cell line JM, the human T-lymphoblastoid C8166 cell line, the human cutaneous T cell lymphoma line H9 and, the human T cell transformed line MT-4. Stocks of HIV-1 strains RF and GB8 (kindly provided by Dr. Graham Farrar, Center for Applied Microbiological Research, Porton Dawn, England) were prepared from chronically infected H9 cells and acutely infected JM cells, respectively. Virus stocks consisted of cell-free growth medium (RPMI 1640 plus 10% fetal calf serum) containing freshly shed virus. Virus titres were determined by a standard plaque reduction assay.

[2] = system: virus-induced cell fusion (gp120-CD4 dependent); experiment: Anti-syncytial cocultivation assay: H9 cells chronically infected with HIV-1 RF mixed with uninfected C8166 cells; type: cell-based, HIV-1 RF; human H9 and C8166 cells; settings: for Syncytia after 2 hrs: virus control ++; for Syncytia after 3 1/2 hrs / Syncytia after 5 1/2 hrs: virus control +++
Description: Syncytial cell formation depends on the interaction of gp120, expressed in the membranes of infected cells, with the CD4 antigen on neighboring cells (Camerini and Seed, 1990). We utilized a cell cocultivation model to examine the effect of the stilbene disulfonic acids on the gp120-CD4 dependent fusion process. This system consists of mixing H9 cells chronically infected with HIV-1 RF (gp120^+ cells) with uninfected C8166 cells (CD4^+ cells) as the fusion indicator. In this assay, cell fusion occurred within 2 to 3 hours of mixing at 37° C. and substantial syncytia were observed after a further 3 to 4 hours (FIG. 1, Panel A). […] These findings with the sulfated polysaccharides were consistent with a previous report (Montefiori et al., 1990).
The effect of the stilbene disulfonic acids and various sulfated polysaccharides on virus-induced cell fusion. In this assay, 10^5 H9 cells, chronically infected with the HIV-1 strain RF, were cocultured with 10^5 uninfected C8166 cells in the absence and presence of the test compounds. FIG. 1A: Positive control, no compound addition; FIG. 1B: 100 μg/ml DIDS; FIG. 1C: 100 μg/ml SITS; FIG. 1D: positive control; FIG. 1E: 10 μg/ml 500,000 MW dextran sulfate; FIG. 1F: 250 μg/ml heparin.
CD4^+ uninfected C8166 cells were seeded into 24-well trays ([…]) that contained growth medium and various concentrations of test compounds. H9 cells, chronically infected with the RF strain of HIV-1, were washed and then added as a source of gp120^+ cells at 10^5 cells/well except for the noncytopathic control: those wells received uninfected H9 cells. The trays were then incubated at 37° C. and the cocultures were observed between 1 and 6 hours p.i. Syncytia were recorded on photographic film.
Protocol: H9 cells chronically infected with RF strain of HIV-1 and uninfected C8166 cells were mixed in the presence of either DIDS, SITS, H2 DIDS, dextran sulfate, or heparin (100 μg/ml). The cells were observed after 2, 31/2 and 51/2 hours and the amount of cell fusion quantified.
Protocol: H9 cells chronically inected with HIV-1 and uninfected C8166 cells were mixed in the presence of either DIDS, SITS, H2 DIDS, dextran sulfate, heparin (at 100 μg/ml), OKT4 or OKT4A (at a 1/50 dilution). The cells were observed after 4 hours and the amount of cell fusion quantitied. OKT4 and OKT4A are monoclonal antibodies that bined the CD4 cell surface antigen.

HIV-1 infected JM cells = experiment: Treatment of HIV-1 infected JM cells with DIDS, SITS and ddC; type: cell-based, HIV-1 (human T cell line JM)
Experimental: Protocol: JM cells were infected with HIV to give approximately 100 syncytia after 3 days. Virus adsorption was at room temperature for 2 hours. The cells were then washed thoroughly and distributed in wells of a tissue culture plate at a concentration of 1×10^5 cells/well. At 24 hours post infection either DIDS (100 μg/ml), SITS (100 μg/ml), or ddC (5 μM) were added to wells having infected cells. As virus controls, some wells had no drug added. At 42 hours post infection other wells received either ddC (5 μM), SITS (100 μg/ml), or DIDS (100, 50, 25, 12.5, 6.25 μg/ml). Syncytia were scored at 3 and 4 days post-infection and the supernatant fluids were harvested after 3 and 4 days for p24 core antigen determination.

MT-4 cells = experiment: Cytotoxicity in MT-4 cells, tetrazolium reduction assay; type: cell-based, human
[3] = system: virus-induced cell fusion (gp120-CD4 dependent); experiment: Anti-syncytial cocultivation assay: H9 cells chronically infected with HIV-1 RF mixed with uninfected C8166 cells; type: cell-based, HIV-1 RF; human H9 and C8166 cells; settings: 200 μg/ml; Panel C

Compound: O=S(=O)(O)c1cc(N=C=S)ccc1C=Cc1ccc(N=C=S)cc1S(=O)(=O)O [DIDS, 4,4'-diisothiocyanatostilbene-2,2'-disulfonic acid]
- Plaque counts (HCMV; 1 μg/ml, first count): 15
- Plaque counts (HCMV; 1 μg/ml, second count): 14
- Plaque counts (HCMV; 10 μg/ml, first count): 16
- Plaque counts (HCMV; 10 μg/ml, second count): 12
- Plaque counts (HCMV; 10 μg/ml, third count): 11
- Plaque counts (HCMV; 100 μg/ml, first count): 3
- Plaque counts (HCMV; 100 μg/ml, second count): 4
- Plaque counts (HCMV; 100 μg/ml, third count): 3
- Plaque counts (HCMV; 1000 μg/ml, first count): 0
- Plaque counts (HCMV; 1000 μg/ml, second count): 0
- Plaque counts (HCMV; 1000 μg/ml, third count): 0
- activity at 1 µg/mL (HCMV; Human betaherpesvirus 5, 1 μg/ml, read-out: Mean % VC (plaques)): 49%
- activity at 10 µg/mL (HCMV; Human betaherpesvirus 5, 10 μg/ml, read-out: Mean % VC (plaques)): 43%
- activity at 100 µg/mL (HCMV; Human betaherpesvirus 5, 100 μg/ml, read-out: Mean % VC (plaques)): 10%
- activity at 1000 µg/mL (HCMV; Human betaherpesvirus 5, 1000 μg/ml, read-out: Mean % VC (plaques)): 0%
- growth of RF in MT-4 cells / antiviral activity [1]: blocked the growth of RF
- cell fusion / syncytia ([2]; 100 μg/ml, at the time of cell mixing): completely prevented cell fusion
- Syncytia after 2 hrs ([2]; 100 μg/ml): 0
- Syncytia after 3 1/2 hrs ([2]; 100 μg/ml): 0
- Syncytia after 5 1/2 hrs ([2]; 100 μg/ml): 0
- protection of C8166 cells ([2]; 200 μg/ml, 5 days post-mixing, not shown): totally protected the C8166 cells
- blocking virus-induced cell fusion and death ([2]; summary statement): siginificant antiviral activity
- Mean syncytia/well 3 days p.i. (HIV-1 infected JM cells; 6 μg/ml, added 42 hr): As VC
- Mean syncytia/well 4 days p.i. (HIV-1 infected JM cells; 6 μg/ml, added 42 hr): As VC
- p24 antigen 3 days p.i. (HIV-1 infected JM cells; 6 μg/ml, added 42 hr): 18000 pg/mL
- p24 antigen 4 days p.i. (HIV-1 infected JM cells; 6 μg/ml, added 42 hr): 34000 pg/mL
- Mean syncytia/well 3 days p.i. (HIV-1 infected JM cells; 12 μg/ml, added 42 hr): As VC
- Mean syncytia/well 4 days p.i. (HIV-1 infected JM cells; 12 μg/ml, added 42 hr): As VC
- p24 antigen 3 days p.i. (HIV-1 infected JM cells; 12 μg/ml, added 42 hr): 210000 pg/mL
- p24 antigen 4 days p.i. (HIV-1 infected JM cells; 12 μg/ml, added 42 hr): 390000 pg/mL
- Mean syncytia/well 3 days p.i. (HIV-1 infected JM cells; 25 μg/ml, added 42 hr): As VC
- Mean syncytia/well 4 days p.i. (HIV-1 infected JM cells; 25 μg/ml, added 42 hr): As VC
- p24 antigen 3 days p.i. (HIV-1 infected JM cells; 25 μg/ml, added 42 hr): 15000 pg/mL
- p24 antigen 4 days p.i. (HIV-1 infected JM cells; 25 μg/ml, added 42 hr): 59000 pg/mL
- Mean syncytia/well 3 days p.i. (HIV-1 infected JM cells; 50 μg/ml, added 42 hr): > 80
- Mean syncytia/well 4 days p.i. (HIV-1 infected JM cells; 50 μg/ml, added 42 hr): 100
- p24 antigen 3 days p.i. (HIV-1 infected JM cells; 50 μg/ml, added 42 hr): 19200 pg/mL
- p24 antigen 4 days p.i. (HIV-1 infected JM cells; 50 μg/ml, added 42 hr): 63000 pg/mL
- Mean syncytia/well 3 days p.i. (HIV-1 infected JM cells; 100 μg/ml, added 24 hr): 0
- Mean syncytia/well 4 days p.i. (HIV-1 infected JM cells; 100 μg/ml, added 24 hr): 20
- p24 antigen 3 days p.i. (HIV-1 infected JM cells; 100 μg/ml, added 24 hr): 6100 pg/mL
- p24 antigen 4 days p.i. (HIV-1 infected JM cells; 100 μg/ml, added 24 hr): 15800 pg/mL
- Mean syncytia/well 3 days p.i. (HIV-1 infected JM cells; 100 μg/ml, added 42 hr): 34
- Mean syncytia/well 4 days p.i. (HIV-1 infected JM cells; 100 μg/ml, added 42 hr): 70
- p24 antigen 3 days p.i. (HIV-1 infected JM cells; 100 μg/ml, added 42 hr): 19800 pg/mL
- p24 antigen 4 days p.i. (HIV-1 infected JM cells; 100 μg/ml, added 42 hr): 20900 pg/mL
- activity at 6 µg/mL (HIV-1 infected JM cells; Human immunodeficiency virus 1, 72 h, 6 μg/ml, added 42 hr, read-out: p24 antigen 3 days p.i., % control): 38%
- activity at 12 µg/mL (HIV-1 infected JM cells; Human immunodeficiency virus 1, 72 h, 12 μg/ml, added 42 hr, read-out: p24 antigen 3 days p.i., % control): > 100%
- activity at 25 µg/mL (HIV-1 infected JM cells; Human immunodeficiency virus 1, 72 h, 25 μg/ml, added 42 hr, read-out: p24 antigen 3 days p.i., % control): 32%
- activity at 50 µg/mL (HIV-1 infected JM cells; Human immunodeficiency virus 1, 72 h, 50 μg/ml, added 42 hr, read-out: p24 antigen 3 days p.i., % control): 41%
- activity at 100 µg/mL (HIV-1 infected JM cells; Human immunodeficiency virus 1, 72 h, 100 μg/ml, added 24 hr, read-out: p24 antigen 3 days p.i., % control): 13%
- activity at 100 µg/mL (HIV-1 infected JM cells; Human immunodeficiency virus 1, 72 h, 100 μg/ml, added 42 hr, read-out: p24 antigen 3 days p.i., % control): 42%
- activity at 6 µg/mL (HIV-1 infected JM cells; Human immunodeficiency virus 1, 96 h, 6 μg/ml, added 42 hr, read-out: p24 antigen 4 days p.i., % control): 38%
- activity at 12 µg/mL (HIV-1 infected JM cells; Human immunodeficiency virus 1, 96 h, 12 μg/ml, added 42 hr, read-out: p24 antigen 4 days p.i., % control): 44%
- activity at 25 µg/mL (HIV-1 infected JM cells; Human immunodeficiency virus 1, 96 h, 25 μg/ml, added 42 hr, read-out: p24 antigen 4 days p.i., % control): 66%
- activity at 50 µg/mL (HIV-1 infected JM cells; Human immunodeficiency virus 1, 96 h, 50 μg/ml, added 42 hr, read-out: p24 antigen 4 days p.i., % control): 70%
- activity at 100 µg/mL (HIV-1 infected JM cells; Human immunodeficiency virus 1, 96 h, 100 μg/ml, added 24 hr, read-out: p24 antigen 4 days p.i., % control): 18%
- activity at 100 µg/mL (HIV-1 infected JM cells; Human immunodeficiency virus 1, 96 h, 100 μg/ml, added 42 hr, read-out: p24 antigen 4 days p.i., % control): 23%
- cytotoxicity at antiviral concentrations (MT-4 cells): noncytotoxic

Compound: O=S(=O)(O)c1cc(N=C=S)ccc1CCc1ccc(N=C=S)cc1S(=O)(=O)O [H2 DIDS, 4,4'-diisothiocyanatodihydrostilbene-2,2'-disulfonic acid]
- Syncytia after 2 hrs ([2]; 100 μg/ml): 0
- Syncytia after 3 1/2 hrs ([2]; 100 μg/ml): 0
- Syncytia after 5 1/2 hrs ([2]; 100 μg/ml): 0
- cytotoxicity at antiviral concentrations (MT-4 cells): noncytotoxic

Compound: CC(=O)Nc1ccc(C=Cc2ccc(N=C=S)cc2S(=O)(=O)O)c(S(=O)(=O)O)c1 [SITS, 4-acetamido-4'-isothiocyanatostilbene-2,2'-disulfonic acid]
- growth of RF in MT-4 cells / antiviral activity [1]: weak antiviral activity
- cell fusion / syncytia [3]: had no effect
- Mean syncytia/well 3 days p.i. (HIV-1 infected JM cells; 100 μg/ml, added 24 hr): As VC
- Mean syncytia/well 4 days p.i. (HIV-1 infected JM cells; 100 μg/ml, added 24 hr): As VC
- p24 antigen 3 days p.i. (HIV-1 infected JM cells; 100 μg/ml, added 24 hr): 18000 pg/mL
- p24 antigen 4 days p.i. (HIV-1 infected JM cells; 100 μg/ml, added 24 hr): 62500 pg/mL
- Mean syncytia/well 3 days p.i. (HIV-1 infected JM cells; 100 μg/ml, added 42 hr): As VC
- Mean syncytia/well 4 days p.i. (HIV-1 infected JM cells; 100 μg/ml, added 42 hr): As VC
- p24 antigen 3 days p.i. (HIV-1 infected JM cells; 100 μg/ml, added 42 hr): 7000 pg/mL
- p24 antigen 4 days p.i. (HIV-1 infected JM cells; 100 μg/ml, added 42 hr): 95000 pg/mL
- activity at 100 µg/mL (HIV-1 infected JM cells; Human immunodeficiency virus 1, 72 h, read-out: p24 antigen 3 days p.i., % control, 100 μg/ml, added 24 hr): 38%
- activity at 100 µg/mL (HIV-1 infected JM cells; Human immunodeficiency virus 1, 72 h, read-out: p24 antigen 3 days p.i., % control, 100 μg/ml, added 42 hr): 15%
- activity at 100 µg/mL (HIV-1 infected JM cells; Human immunodeficiency virus 1, 96 h, read-out: p24 antigen 4 days p.i., % control, 100 μg/ml, added 24 hr): 70%
- activity at 100 µg/mL (HIV-1 infected JM cells; Human immunodeficiency virus 1, 96 h, read-out: p24 antigen 4 days p.i., % control, 100 μg/ml, added 42 hr): > 100%
